# According to US20090191543A1, “IDENTIFICATION OF RAC1B AS A MARKER AND MEDIATOR OF METALLOPROTEINASE-INDUCED MALIGNANCY” (THEREGENTS OF THE UNIVERSITY OF CALIFORNIA, priority 2005, published 2009):
# How the values were obtained:
# [1] = target: T1, MMP-3 (Rattus norvegicus, UniProt P03957); experiment: Effect of MMP inhibitor on cells treated with MMP-3 (vimentin-EGFP construct, morphology, FIG. 8b); type: cell-based, mouse
# T1 construct: expressed in transfected cells; host or cells: SCp2 cells; conditioned medium used as the MMP-3 source
# T1 sequence (P03957 98-475): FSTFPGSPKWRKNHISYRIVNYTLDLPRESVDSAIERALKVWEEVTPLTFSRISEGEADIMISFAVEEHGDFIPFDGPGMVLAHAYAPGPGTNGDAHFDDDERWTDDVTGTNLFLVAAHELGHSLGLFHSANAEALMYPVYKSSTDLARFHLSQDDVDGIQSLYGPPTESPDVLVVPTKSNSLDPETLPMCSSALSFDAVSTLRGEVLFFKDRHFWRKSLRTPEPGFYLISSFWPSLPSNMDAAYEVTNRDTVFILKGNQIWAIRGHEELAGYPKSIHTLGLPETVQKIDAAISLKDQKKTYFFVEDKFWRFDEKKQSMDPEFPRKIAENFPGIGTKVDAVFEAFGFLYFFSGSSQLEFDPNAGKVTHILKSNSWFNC
# Text: The MMP inhibitor GM6001 blocked the MMP-3-mediated effects. […] Scale bar, 50 μm.
# [2] = tested on: 8-oxodeoxyguanosine; experiment: 8-oxoG analysis, FITC-avidin nuclear staining (DNA damage); type: cell-based, mouse; conditions: for MMP-3-induced increase in FITC-avidin nuclear staining: cells treated with MMP-3 plus inhibitor, FIG. 4b
# Description: ROS and 8-oxoG analyses. […] FITC-conjugated avidin (Sigma; 1 hr, 37° C.). […] ID NO: 12). […] J Cell Biol 158, 357-68 (2002).
# [3] = tested on: SCp2 cells; experiment: PALA resistance assay (genomic instability); type: cell-based, mouse
# [4] = tested on: vimentin; experiment: Mesenchymal vimentin expression; type: cell-based, mouse; conditions: for expression of mesenchymal vimentin: MMP-3 4 days or 25 μM H2O2 7 days
# Description: (§1) Except as otherwise indicated, cells were incubated in the presence of conditioned medium containing MMP-3 for 4 days and with 25 μM H2O2 for 7 days. NAC was used at a concentration of 10 mM. Antibodies against cytokeratin and vimentin were described previously (Lochter, A. et al. J Biol Chem 272, 5007-15, 1997; Lochter, A. et al. J Cell Biol 139, 1861-72, 1997).
# (§2) […]; all modified plasmids were sequence-verified.
# [5] = tested on: SCp2 cells; experiment: Cell scattering (FIG. 3f); type: cell-based, mouse
# Description: as §1
# [6] = tested on: Snail; experiment: Snail transcript expression; type: cell-based, mouse; conditions: FIG. 3b; for expression of the transcription factor Snail: MMP-3, or H2O2 in the absence of MMP-3
# Description: as §1, §2
# [7] = tested on: cytokeratins; experiment: Epithelial cytokeratin levels in MMP-3-treated cells; type: cell-based, mouse
# Text: Cell culture, antibodies, and plasmids. Cell culture was as previously described (Lochter, A. et al. Misregulation of stromelysin-1 expression in mouse mammary tumor cells accompanies acquisition of stromelysin-1-dependent invasive properties. J. Biol Chem 272, 5007-15, 1997; Lochter, A. et al. Matrix metalloproteinase stromelysin-1 triggers a cascade of molecular alterations that leads to stable epithelial-to-mesenchymal conversion and a premalignant phenotype in mammary epithelial cells. J Cell Biol 139, 1861-72, 1997); for gene repression, a 5 mg ml^−1 stock solution of tetracycline in 100% ethanol was diluted 1:1000 into culture medium and changed daily. To stimulate cells with MMP-3, we used medium that had been conditioned by SCp2 cells containing the tet-regulated, autoactivated MMP-3-construct (Lochter, A. et al. J Biol Chem 272, 5007-15, 1997; Lochter, A. et al. J Cell Biol 139, 1861-72, 1997) with expression induced by growth in the absence of tetracycline; conditioned medium from cells repressed by treatment with tetracycline was used for controls. This conditioned medium was analyzed by zymography to verify that only MMP-3 was being expressed, and was shown be active through extracellular proteolysis (FIG. 8). […] NAC was used at a concentration of 10 mM. […]
# [8] = tested on: SCp2 cells; experiment: MMP-3-induced cell motility, invasion and morphological alterations (not shown); type: cell-based, mouse; conditions: NAC
# [9] = tested on: SCp2 cells; experiment: LC50 of PALA for SCp2 cells; conditions: read-out: LC50 of PALA for SCp2 cells
# [10] = tested on: CAD locus; experiment: Fluorescence in situ hybridization of CAD gene locus; type: cell-based, mouse; conditions: exposure to MMP-3; FIG. 4d
# [11] = tested on: Cdc42; conditions: MMP-3-treated cells; not shown
# [12] = tested on: Rac1b; conditions: mammary epithelial cells treated with MMP-3; FIGS. 1b-1d
# Description: (§3) Transcript levels were assessed using RT/PCR by isolating RNA (Tri-pure; Roche Diagnostics), synthesizing cDNA, and performing quantitative, real-time PCR (Lightcycler, Roche Diagnostics); all these experiments were normalized to GAPDH.
# For analysis of Rac1 and Rac1b (FIG. 1c), oligonucleotide primers that hybridize to sequences flanking the splice insertion site were used; for specific analysis of Rac1b (FIG. 1d, 4h), oligonucleotide primers specific for the Rac1b splice isoform were used.
# [13] = tested on: SCp2 cells; conditions: MMP-3 for 14 days, then selected with PALA; FIG. 4f
# [14] = tested on: keratin, E-cadherin, vimentin, SM actin, TGFβ, Snail, collagen A1 and fibronectin; conditions: cells treated with MMP-3 for 4 days; FIG. 5b
# Description: as §3
# [15] = tested on: mammary epithelial cells; experiment: Cell motility assessed by scratch assay; type: cell-based, mouse; conditions: FIG. 1f
# Text: FIG. 1f is a graph showing rate of cell migration and motility as assessed by scratch assay (Goodman, S. L., Vollmers, H. P., and Birchmeier, W. Cell 41, 1029-1038, 1985).
# [16] = tested on: RhoA; conditions: MMP-3-treated cells; not shown
# [17] = tested on: cellular ROS; conditions: treatment with MMP-3; FIG. 2a
# Description: ROS and 8-oxoG analyses. To measure ROS concentrations, cells were incubated in the dark with 50 mM DCFDA (Molecular Probes) for 30 min in serum- and phenol-red-free medium. […] Images were captured using a Nikon Diaphot 300 microscope and Spot RT camera and software (Technical Instruments, Burlingame). Fluorescence was quantified using IMAGEJ (URL:=<http://rsb.info.nih.gov/ij/index.html>). For DCFDA staining, cellular fluorescence was quantified, for FITC-avidin staining, nuclear fluorescence was measured (using a DAPI image mask). More than 250 measurements were made for each data point.
# [18] = SCp2 cells, treatment with MMP-3 for 28 days, FIG. 5a
compound,measurement,setting,value
CNC(=O)[C@H](Cc1c[nH]c2ccccc12)NC(=O)[C@@H](CC(=O)NO)CC(C)C [GM6001],MMP-3-mediated effects,[1]; cells treated with MMP-3,blocked
same,malignant transformation (flattened morphology of invasive cells) of MMP-3 induced cells,[1]; coincubation with GM6001,prevents
same,MMP-3-induced increase in FITC-avidin nuclear staining,[2],blocked
"OO [H2O2, reference compound]",PALA resistance in the absence of MMP-3,"[3]; H2O2 25 μM, FIG. 4e",reproduced
same,expression of mesenchymal vimentin,[4]; FIG. 3g,can stimulate expression
same,cell scattering,[5],cell scattering induced
same,expression of the transcription factor Snail,[6],induced
"CC(=O)N[C@@H](CS)C(=O)O [NAC, N-acetyl cysteine, reference compound]",MMP-3-induced downregulation of epithelial cytokeratins,"[7]; NAC 10 mM, FIG. 3a",effectively inhibited
same,MMP-3-induced PALA resistance / CAD amplification,"[3]; 14 d treatment with MMP-3, NAC 10 mM, FIG. 4e",inhibited
same,"MMP-3-induced cell motility, invasion, and morphological alterations",[8],inhibited
same,MMP-3-induced upregulation of mesenchymal vimentin,"[4]; NAC 10 mM, FIG. 3g",effectively inhibited
same,MMP-3-induced increase in FITC-avidin nuclear staining,[2],blocked
same,MMP-3-enhanced expression of transcription factor Snail,[6]; NAC 10 mM,blocked
"O=C(O)C[C@H](NC(=O)CP(=O)(O)O)C(=O)O [PALA, N-(phosphonacetyl)-L-aspartate]",CC50,[9],25 µM
MMP-3: autoactivated MMP-3 supplied as medium conditioned by SCp2 cells with tet-regulated construct,cytokeratin staining,[7]; [18],decrease in cytokeratins
same,CAD locus copy number in PALA-resistant cells,[10],amplification of the CAD locus
same,"PALA-resistant colonies, after 28 days of MMP-3 exposure","[3]; SCp2 cells, 200 μM PALA, after 28 days",700 colonies/10^5 cells
same,"PALA-resistant colonies, after one week of MMP-3 exposure","[3]; SCp2 cells, 200 μM PALA, one week of MMP-3 exposure",200 colonies/10^5 cells
same,activity of Cdc42,[11],unchanged
same,Rac1b transcript and expression levels,[12],upregulates
same,expression of mesenchymal vimentin,[4]; FIG. 3g,can stimulate expression
same,vimentin staining,[4]; [18],increase in vimentin
same,genomic alterations by CGH analysis,[13],many additional genomic amplifications and deletions
same,transcript levels of keratin and E-cadherin,[14],greater than two-fold decrease
same,"transcript levels of vimentin, SM actin, TGFβ, Snail, collagen A1 and fibronectin",[14],two-fold or greater increase
same,cell migration and motility,[15],causes an increase
same,FITC-avidin nuclear staining,"[2]; cells treated with MMP-3 vs untreated, FIG. 4a",significantly increased
same,cell scattering,[5],cell scattering induced
same,expression of the transcription factor Snail,[6],enhances expression
same,activity of RhoA,[16],unchanged
same,cellular ROS (DCFDA fluorescence),[17],produced increases
